From patent US5700779A (Cortech, Inc., priority 1996, dated 1997) come the findings set out here.

In data set [1] the target is T1, bradykinin type 2 (BK2) receptors (Rattus norvegicus, UniProt P25023).
T1 construct: Uterine horns were removed, placed under a 1 g resting tension in 4 mL tissue baths; from tissue; host or cells: rat uterine horns (Sprague-Dawley, stilbesterol-pretreated)
T1 sequence (P25023 1-396): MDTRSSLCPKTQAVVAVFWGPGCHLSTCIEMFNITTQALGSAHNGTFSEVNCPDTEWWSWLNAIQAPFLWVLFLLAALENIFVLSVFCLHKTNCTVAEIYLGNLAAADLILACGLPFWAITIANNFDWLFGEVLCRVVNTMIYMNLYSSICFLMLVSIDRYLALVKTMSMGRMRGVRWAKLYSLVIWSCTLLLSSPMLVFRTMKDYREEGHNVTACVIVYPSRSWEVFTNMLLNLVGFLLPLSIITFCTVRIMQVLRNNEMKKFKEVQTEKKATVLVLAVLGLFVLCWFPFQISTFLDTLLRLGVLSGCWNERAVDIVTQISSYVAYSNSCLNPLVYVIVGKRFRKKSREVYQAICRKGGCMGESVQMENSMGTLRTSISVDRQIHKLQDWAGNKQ
The data set is described as follows: standard rat uterus pA2 assay (in vitro B2 antagonist activity). The conditions noted are these: for % Recovery: recovery of agonist response after washing 40 minutes following highest antagonist concentration; for activity in rat uterus functional tissue assay: summary of Table 1; for B2 pA2 (Rat Uterus): antagonist preincubated for 15 minutes. As to the method:
The standard rat uterus pA2 assay was conducted as follows:
Female Sprague-Dawley rats (200-250 g) were pretreated with stilbesterol (100 μg/kg) and killed 18 hours later by a blow on the head and exsanguinated. Uterine horns were removed, placed under a 1 g resting tension in 4 mL tissue baths containing De Jalon's solution at 31° C. and aerated. […] Antagonist potency was calculated according to the method of Arunlakshana and Schild (Arunlakshana, O., Schild, H. O., Br. J. Pharmacology 14 48-58 (1959)). […] The difference in pD2 values compared to concurrent control reflected the "percentage recovery" of agonist response.

The target in data set [2] is T2, bradykinin type 1 (BK1) receptors (Oryctolagus cuniculus, UniProt P48748).
T2 construct: Spiral strips were mounted under 2 g resting tension in 5 mL tissue baths; from tissue; host or cells: rabbit thoracic aorta spiral strips (New Zealand White)
T2 sequence (P48748 1-352): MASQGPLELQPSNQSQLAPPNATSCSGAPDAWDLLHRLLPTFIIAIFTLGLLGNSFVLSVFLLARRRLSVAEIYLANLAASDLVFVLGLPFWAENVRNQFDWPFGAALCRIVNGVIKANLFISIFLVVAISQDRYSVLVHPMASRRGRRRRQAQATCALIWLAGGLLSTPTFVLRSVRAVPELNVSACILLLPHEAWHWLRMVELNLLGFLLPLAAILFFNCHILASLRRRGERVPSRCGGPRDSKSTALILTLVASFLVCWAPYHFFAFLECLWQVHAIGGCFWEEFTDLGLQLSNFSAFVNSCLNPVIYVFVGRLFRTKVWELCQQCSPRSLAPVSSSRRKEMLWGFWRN
Description: rabbit aorta in vitro B1 antagonist activity. Conditions: reversal of des-Arg9-bradykinin contraction of rabbit aorta strips. As to the method:
Female New Zealand White rabbits were killed by overdose of pentobarbital (80 mg/kg i.v.) and the thoracic aorta removed. […] Two concentration-effect curves for des-Arg^9 -bradykinin were constructed at 1 and 3 hours. At five hours des-Arg^9 -bradykinin was added to the bath to a final concentration of […]. This produced stable, sustained and prolonged contractions of up to 45 minutes.

Another data set can be described thus: in vitro. Conditions: pig, lung membranes, pH 7.2.
In data set [3] the target is T3, bradykinin type 2 (BK2) receptors (Cavia porcellus, UniProt O70526).
T3 construct: from tissue; host or cells: guinea pig ileum membrane preparation (Hartley strain)
T3 sequence (O70526 1-372): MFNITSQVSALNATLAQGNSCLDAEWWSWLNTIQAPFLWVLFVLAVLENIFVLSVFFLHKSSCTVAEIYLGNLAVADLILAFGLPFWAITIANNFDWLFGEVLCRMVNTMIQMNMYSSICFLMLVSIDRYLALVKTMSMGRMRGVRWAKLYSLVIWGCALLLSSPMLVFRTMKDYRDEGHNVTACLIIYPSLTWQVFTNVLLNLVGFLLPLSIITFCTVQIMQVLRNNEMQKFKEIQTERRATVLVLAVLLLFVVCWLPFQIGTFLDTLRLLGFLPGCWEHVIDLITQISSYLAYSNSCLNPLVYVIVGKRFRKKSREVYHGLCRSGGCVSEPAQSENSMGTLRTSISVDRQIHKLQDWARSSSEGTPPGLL
The data set is described as follows: antagonist binding to guinea pig ileum (tritium labeled bradykinin). As to the method: Radioactivity was determined by liquid scintillation counting.

The nature of data set [4]: stability in porcine kidney cortical membranes. The conditions noted are these: pig, pH 7.2, porcine kidney preparation. In kind it is in vitro ADME.
Description: Rat or porcine lung and kidney cortical membranes were prepared using differential centrifugation as described by Skidgel (Booth, A. G. et al., Biochemical Journal 142, 575-581 (1974)) for lung or by Booth (Erdos, E. G. et al., Biochemical Pharmacology 33 3471-3478 (1984)) for kidney. Membrane preparations were stored at -20° C. […] Ten microliters of this working solution were delivered into a series of Eppendorf tubes, followed by human or guinea pig plasma (90 μL) or PBS as a control blank, and incubated for various time periods. At each time point the reaction was quenched with the addition of 100 μL 1N HCl in either acetonitrile or ethanol. Samples were allowed to stand approximately fifteen minutes and were then spun at 14,000 rpm for 10 minutes. Supernatant fractions were removed, filtered through 0.22 μM filters (Millipore) and analyzed by HPLC (C18, 12-80% acetonitrile in water, both containing 0.1% trifluoroacetic acid, monitoring at 214 nm.
Porcine kidney lung preparations were diluted 1:10 with PBS; rat kidney preparations were diluted 1:100 with PBS; porcine lung preparations were diluted 1:1 in PBS. […] At various time points the reactions were quenched by the addition of 100 μL of ethanol, centrifuged and analyzed by HPLC as described above. The half-life for the disappearance of the HPLC peak was determined using the computer program ENZFIT (Elsevier).

Where no end group is shown, it is not given here. [ ]: non-standard residue; d: D form. Oic = O=C(O)[C@@H]1C[C@@H]2CCCC[C@@H]2N1; Hyp = O=C(O)[C@@H]1C[C@@H](O)CN1; dTic = O=C(O)[C@H]1Cc2ccccc2CN1; 2Thi = N[C@@H](Cc1cccs1)C(=O)O

By half-life is commonly meant the time needed for the level to fall by half in the phase considered. The low end stands for rapid decline, the high end for slow decline. A word on the Ki: it is a measure of affinity in units of concentration, obtained from inhibition or displacement.

Regarding “D-Arg-Arg-Hyp-Hyp-Gly-Thi-Ser-D-Tic-NChg-Arg [Compound 17]”, in data set [1], the “% Recovery” value was 60% and the “activity in rat uterus functional tissue assay” value (“activity” for short) is recorded as “highly potent antagonists”.

On to “D-Arg-Arg-Pro-Hyp-Gly-Thi-Ser-D-Cpg-NChg-Arg [Compound 10]”, for which the “% Recovery” value in data set [1] was 75%.

On to “D-Arg-Arg-Pro-Hyp-Gly-Thi-Ser-D-NBng-NChg-Arg [Compound 7]”, for which, in data set [1], the “B2 pA2 (Rat Uterus)” value is on record as “Agonist” and the “activity” value was “agonists”.

For the substance “D-Arg-Arg-Pro-Hyp-Gly-Thi-Ser-D-NBng-Oic-Arg [Compound 6]”, in data set [1], the “% Recovery” value is recorded as 93%.

Regarding “D-Arg-Arg-Pro-Hyp-Gly-Thi-Ser-D-Phe-NChg-Arg [Compound 9]”, the “% Recovery” value in data set [1] worked out at 87%.

On to “D-Arg-Arg-Pro-Hyp-Gly-Thi-Ser-D-Phe-NPhg-Arg [Compound 16]”, for which the “% Recovery” value in data set [1] is 60%.

In the case of “D-Arg-Arg-Pro-Hyp-Gly-Thi-Ser-D-Tic-NCpg-Arg [Compound 8]”, in data set [1], the “% Recovery” value was determined as 56% and the “activity” value is “highly potent antagonists”.

As to “D-Arg-Arg-Pro-Hyp-Gly-Thi-Ser-D-Tic-NPhg-Arg [Compound 15]”, in data set [1], the “% Recovery” value is on record as 54% and the “activity” value is given as “highly potent antagonists”.

Turning to “D-Arg-Arg-Pro-Hyp-Gly-Thi-Ser-D-Tic-Oic-Arg [HOE-140, reference compound]”, in data set [2], the “B1 (Rabbit Aorta)” value is recorded as “Inactive”. Moreover, the “% Recovery” value in data set [1] was 41%.

As for “D-Arg-Arg-Pro-Hyp-Gly-Thi-Ser-DTic-NChg [Compound 2]”, the “% Recovery” value in data set [1] was determined as 0%.

For the substance “D-Arg-Arg-Pro-Hyp-Gly-Thi-Ser-Igl*-NChg-Arg [Compound 3]”, the “% Recovery” value in data set [1] is reported as 100%.

As for “D-Arg-Arg-Pro-Hyp-Gly-Thi-Ser-Igl*-NChg-Arg [Compound 4]”, in data set [1], the “B2 pA2 (Rat Uterus)” value is “Agonist” and the “activity” value is given as “agonists”.

Regarding “D-Arg-Arg-Pro-Hyp-Gly-Thi-Ser-NBng-Oic [Compound 1]”, the “% Recovery” value in data set [1] turned out to be 32%.

“D-Arg-Arg-Pro-Hyp-Gly-Thi-Ser-NPeg-Oic-Arg [Compound 11]”: in data set [1], the “B2 pA2 (Rat Uterus)” value is listed as “Agonist” and the “activity” value is “agonists”.

For the substance “RPPGFSPFR [Bradykinin, Arg^1 -Pro^2 -Pro^3 -Gly^4 -Phe^5 -Ser^6 -Pro^7 -Phe^8 -Arg^9]”, the half-life at 100 µM (in the data set “in vitro”; in data set [4]) was 3 min each time. In data set [3], this substance had a Ki of 0.0301 nM.

Consider “[dR]RP[Hyp]GGS[dTic][Oic]R [CP-0601, reference compound]”, for which the “% Recovery” value in data set [1] was 75%.

As to “[dR]RP[Hyp][2Thi]GS[dTic][Oic]R [CP-0589, reference compound]”, in data set [1], the “% Recovery” value is 57%.

On to “δ-Gpa-Arg-Pro-Hyp-Gly-Thi-Ser-D-Tic-NChg-Arg [Compound 13]”, for which, in data set [1], the “% Recovery” value came to 66% and the “activity” value is listed as “highly potent antagonists”.

As to “δ-Gpa-Pro-Hyp-Gly-Thi-Ser-D-Tic-NChg-Arg [Compound 14]”, the “% Recovery” value in data set [1] was found to be 81%.
